The text below walks through data of patent publication US4816487A, “1-(2-hydroxyaryl)-alkane-1-on-oximes-procedure of preparation and use in pharmaceuticals” (Humboldt-Universitaet zu Berlin, priority 1985, dated 1989).

The structures appear in SMILES notation.

Assay [1] relates to trachea isolated from guinea pig. Put plainly: carbachol-induced contraction of trachea isolated from guinea pig. As to conditions: spasm by 3.9 μM carbachol; clearly detectable even at 50 μM of active substance. The method, then: Action of 5-methyl-2-hydroxy-laurophenone-oxime on carbachol-induced contraction of trachea isolated from guinea pig:
The compound was checked for anti-asthmatic activity by means of measuring methods well established and known from the literature (cf p. 5) but modified for the purpose of this invention, using a tracheal spiral isolated from guinea pig. Measurements were conducted in thermostat-controlled organ bath in isotonic condition, using a contraction gauge with lever-type sensor, measuring coil, and measuring amplifier (inductive measurement by means of high-frequency oscillating circuit). Air was used for gassing. The suspension solution was of the following composition: 39.46 g of sodium chloride, 2.2 g of potassium chloride, 6.07 g of tris, 1.0 g of calcium chloride, 9.9 g of glucose, 1.0 ml of saturated magnesium chloride solution, 43 ml 1N hydrochloric acid per 5 l, pH 7.4.
Spasm was induced by 3.9 μM of carbachol.

The target of assay [2] is T1, lipoxygenase from rabbit reticulocytes (Oryctolagus cuniculus, UniProt P12530).
T1 construct: Lipoxygenase from rabbit reticulocytes was obtained in electrophoretically and immunologically pure form; from tissue; host or cells: rabbit reticulocytes
T1 sequence (P12530 1-663): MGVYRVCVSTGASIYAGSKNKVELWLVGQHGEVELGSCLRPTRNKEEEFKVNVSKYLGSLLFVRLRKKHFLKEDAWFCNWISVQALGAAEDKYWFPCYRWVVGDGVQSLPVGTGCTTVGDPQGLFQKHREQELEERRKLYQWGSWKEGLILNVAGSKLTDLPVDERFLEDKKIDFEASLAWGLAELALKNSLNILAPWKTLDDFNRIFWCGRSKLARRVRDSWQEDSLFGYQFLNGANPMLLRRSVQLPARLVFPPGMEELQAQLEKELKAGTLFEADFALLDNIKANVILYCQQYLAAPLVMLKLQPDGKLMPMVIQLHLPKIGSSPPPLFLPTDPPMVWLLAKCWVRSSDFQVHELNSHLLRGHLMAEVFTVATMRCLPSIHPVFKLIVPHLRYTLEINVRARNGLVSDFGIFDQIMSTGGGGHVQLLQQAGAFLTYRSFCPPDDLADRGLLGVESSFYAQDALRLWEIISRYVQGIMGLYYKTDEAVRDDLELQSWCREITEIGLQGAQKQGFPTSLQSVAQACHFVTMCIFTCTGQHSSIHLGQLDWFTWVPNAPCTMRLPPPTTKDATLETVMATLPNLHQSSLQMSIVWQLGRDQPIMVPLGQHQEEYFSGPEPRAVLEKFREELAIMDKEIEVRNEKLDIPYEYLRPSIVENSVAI
The assay can be described thus: inhibition of activity of lipoxygenase from rabbit reticulocytes. Format: biochemical. The method, then:
Persuasive evidence to inhibition of lipoxygenase was produced by a suitable animal lipoxygenase which had been isolated from rabbit reticulocytes, using a method by Rapoport and coworkers /S. M. Rapoport et al., Eur. J. Biochem. 96, 545 (1979)/. A final concentration of 1 mM of most of the compounds, according to this invention, produced inhibition of 90 percent or more (cf. Example 20). Significant inhibition was even recordable from a final concentration of 0.1 mM of some of the compounds, according to this invention. Substance concentrations were varied to determine the titration curves of inhibition and from these the half-inhibition concentrations (I50 -values). A half-inhibition concentration of 7 μM was established for 5-methyl-2-hydroxy-laurophenone-oxime, an oxime of high anti-asthmatic effectiveness.
Inhibition of activity of lipoxygenase from rabbit reticulocytes:
Lipoxygenase from rabbit reticulocytes was obtained in electrophoretically and immunologically pure form by means of the method described in the literature /S. M. Rapoport et al., Eur. J. Biochem. 96, 545 (1979)/. Lipoxygenase activity was determined at 25° C. by amperometric measurement of oxygen consumption by means of a Clark electrode in the following system: 0.1M potassium phosphate, pH 7.4, with 0.2-per-cent sodium cholate and 0.53 mM linoleic acid. The enzyme concentration was […] in the sample for measurement. The substances submitted for testing were dissolved in methyl glycol (fresh distillation in vacuum) and pre-incubated ten minutes with the enzyme at measurement temperature and in the absence of sodium cholate and linoleic acid. […] No remarkable inhibition occurred to control samples under these conditions. Enzyme reaction was started by addition of sodium cholate and linoleic acid. The titration curve of inhibition and, consequently, the concentrations required for inhibition by the order of 50 per cent were determined by variation of active substance concentrations. For comparison, the compounds were tested also on commercial lipoxygenase-1 from soybean.

The next assay concerns rat's paw. Put plainly: carrageenin-induced oedema of rat's paw. Format: in vivo. As to conditions: 50 mg/kg i.p. The source says: This method is an adequate model of asthma bronchiale forms in experimental animals with involvement of IgE-dependent and IgG-dependent allergic reactions /R. Andersson, Brit. J. Pharmacol. 77, 301 (1982)/. The conclusion was, therefore, drawn that the comounds of general Formula I, according to this invention, should, as well, have clearly pronounced antiphlogistic properties. That conclusion was positively verified in vivo by an appropriate inflammatory model in the context of an animal experiment, using carragheenin--induced oedema of rat's paw. The experimental model was handled according to a method proposed by Winter and co-workers /C. A. Winter, E. A. Risley, and G. W. Nuss, Proc. Soc. Exp. Biol. Med. 111, 544 (1962)/ (cf. Example 19).
Inhibition of carrageenin-induced oedema of rat's paw:
Testing is conducted by methods common in international practice /C.A. Winter, E. A. Risley and G. W. Nuss, Proc. Soc. Exp. Biol. Med. 111, 544 (1962)/. Ten rats received intraperitoneal injections of 50 mg/kg body weight of 5-methyl-2-hydroxy-laurophenone-oxime in parallel with 0.1 ml of 0.1-per-cent carrageenin solution (per animal). The development of paw oedema was measured in one-hour intervals, following application, and compared with manifestations in a control group.
For orientation: The carrageenan paw model is a standard test of acute inflammation.

The inhibition is the percentage by which the read-out fell short of the control. As for `CCCCCCCCCCCC(=NO)c1cc(C)ccc1O` [5-methyl-2-hydroxy-laurophenone-oxime], the “dilatation after carbachol-induced spasm” value in assay [1] was “strong dilatation”. For the same compound, the IC50 in assay [2] (limited by solubility, real I50 said to be very much lower, read-out: half-inhibition concentration (I50)) is 7 µM. In addition, the inhibition at 1000 µM in assay [2] (ultimate concentration 1.0 mM, read-out: Inhibition (percent) of lipoxygenase from reticulocytes) is 100%. For the same compound, the “Inhibition of carrageenin-induced oedema” value in the assay with rat's paw (0.5 hr, + significant, P < 0.05) came to 43%; with rat's paw (1 hr, + significant, P < 0.05) it was 47%; with rat's paw (2 hr, + significant, P < 0.05), 34%; in the assay with rat's paw (3 hr, + significant, P < 0.05), 34%; in the assay on rat's paw (4 hr, not marked significant), 31%; with rat's paw (5 hr, not marked significant), 29%.
